Data from patent publication US12638438B2, “Screening methods using canine T2R receptors and pet food products and compositions identified using the same” (MARS, INCORPORATED, priority 2015, dated 2026).

Experiments:
canine T2R5 = molecular target: T1, canine T2R5 (Canis lupus, UniProt Q2ABD6); test: Canine T2R5 activation, intracellular calcium assay in transiently transfected HEK293 cells, dose response (FIG. 7E); format: cell-based
T1 sequence (Q2ABD6 1-295): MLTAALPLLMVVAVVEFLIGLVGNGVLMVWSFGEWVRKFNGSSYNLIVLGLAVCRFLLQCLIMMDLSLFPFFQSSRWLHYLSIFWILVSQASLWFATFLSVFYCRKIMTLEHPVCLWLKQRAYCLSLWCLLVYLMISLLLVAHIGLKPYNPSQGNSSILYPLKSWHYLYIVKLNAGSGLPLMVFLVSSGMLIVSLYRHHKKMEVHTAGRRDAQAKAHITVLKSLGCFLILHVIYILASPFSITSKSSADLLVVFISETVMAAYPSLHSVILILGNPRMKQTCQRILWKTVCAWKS
From the text: There is a potential hydrogen bond between Ser89 and each nitrogen of 1, 10 Phenanthroline. Additional residues that can potentially make van der Waals or Pi interactions with the ligand include Pro264, Leu58, Val88, Gln90, Ile86, Leu173, Trp165, Thr258, Ala261, Tyr234, Glu257, Met260, and Trp85.
(§1) No wash step was required for the luminescent protocol.

canine T2R3 = molecular target: T2, canine T2R3 (Canis lupus, UniProt Q2ABD8); test: Canine T2R3 activation, intracellular calcium assay in transiently transfected HEK293 cells, dose response (FIG. 5E); format: cell-based; conditions: agonist; HEK293 transient, cT2R3 (SEQ ID NO:19); calcium fluorescence or luminescence, FLIPR Tetra; at least 8 concentrations in triplicate
T2 sequence (Q2ABD8 1-316): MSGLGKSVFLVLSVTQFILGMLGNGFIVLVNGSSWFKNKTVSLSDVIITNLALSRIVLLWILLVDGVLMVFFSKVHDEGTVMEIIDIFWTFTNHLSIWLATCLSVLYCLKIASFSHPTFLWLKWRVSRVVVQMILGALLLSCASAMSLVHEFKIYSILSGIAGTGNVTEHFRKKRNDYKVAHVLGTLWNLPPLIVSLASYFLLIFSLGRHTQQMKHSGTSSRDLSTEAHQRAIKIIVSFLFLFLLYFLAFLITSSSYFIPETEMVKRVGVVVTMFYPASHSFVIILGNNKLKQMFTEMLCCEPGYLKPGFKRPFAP
From the text: Residues that can make hydrogen bonding or charged interactions with the ligand include Asn93 and Asp86. […] Additional residues making primarily van der Waals interactions with the ligand include Phe250, Gly185, Phe243, Thr90, Asn176, Val149, Ile154, Lys174, Met82, Ile85, Lys173, and Met69.
as §1

canine T2R10 = molecular target: T3, canine T2R10 (Canis lupus, UniProt Q2ABD4); test: Canine T2R10 activation, intracellular calcium assay in transiently transfected HEK293 cells, dose response (FIG. 8E); format: cell-based; conditions: agonist; HEK293 transient, cT2R10 (SEQ ID NO:23); calcium fluorescence or luminescence, FLIPR Tetra; at least 8 concentrations in triplicate
T3 sequence (Q2ABD4 1-322): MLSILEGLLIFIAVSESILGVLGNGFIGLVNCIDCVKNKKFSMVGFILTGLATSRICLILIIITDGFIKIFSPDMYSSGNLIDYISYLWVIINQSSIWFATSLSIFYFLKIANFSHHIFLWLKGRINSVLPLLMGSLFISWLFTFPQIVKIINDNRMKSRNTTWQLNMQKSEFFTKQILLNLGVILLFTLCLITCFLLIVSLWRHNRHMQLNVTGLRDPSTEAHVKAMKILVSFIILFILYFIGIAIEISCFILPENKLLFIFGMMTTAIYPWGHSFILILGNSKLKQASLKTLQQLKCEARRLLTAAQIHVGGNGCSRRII
From the text: Lys258 and Leu180 (backbone) can potentially make hydrogen bonds with the ligand.
as §1

canine T2R1 = molecular target: T4, canine T2R1 (Canis lupus, UniProt Q2ABE0); test: Canine T2R1 activation, intracellular calcium assay in transiently transfected HEK293 cells, dose response (FIG. 3E); format: cell-based
T4 sequence (Q2ABE0 1-297): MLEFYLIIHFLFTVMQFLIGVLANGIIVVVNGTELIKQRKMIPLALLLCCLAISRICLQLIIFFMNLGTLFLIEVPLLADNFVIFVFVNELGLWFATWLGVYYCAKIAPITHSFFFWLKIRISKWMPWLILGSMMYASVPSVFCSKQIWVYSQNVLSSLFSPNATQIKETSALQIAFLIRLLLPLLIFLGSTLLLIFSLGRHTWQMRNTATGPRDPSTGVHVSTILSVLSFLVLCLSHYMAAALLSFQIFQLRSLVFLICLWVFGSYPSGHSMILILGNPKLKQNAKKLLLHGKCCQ
From the text: FIGS. 2A-2C show canine T2R sequence alignments. The dashed grey arrows indicate active site positions occupied by mostly asparagine or serine residues. The solid black arrows indicate structural tryptophan residues that are present in all human and cat bitter receptors as well as all canine bitter receptors except T2R12. The dashed black arrows indicate the conserved asparagine which is present in most of the bitter receptors. The conjoined solid arrows indicate the conserved LxxxR motif (IxxxR for some instances in T2R2), wherein x can be any amino acid. […] Asn89 can potentially make a hydrogen bond interaction with the ligand. Other residues that can potentially make hydrogen bonding interactions, pi interactions, or charged interactions with the ligand include Tyr239.
as §1

canine T2R2 = molecular target: T5, canine T2R2 (Canis lupus, UniProt Q2ABD9); test: Canine T2R2 activation, intracellular calcium assay in transiently transfected HEK293 cells, dose response (FIG. 4E); format: cell-based; conditions: agonist; HEK293 transient, cT2R2 (SEQ ID NO:18); calcium fluorescence or luminescence, FLIPR Tetra; at least 8 concentrations in triplicate
T5 sequence (Q2ABD9 1-303): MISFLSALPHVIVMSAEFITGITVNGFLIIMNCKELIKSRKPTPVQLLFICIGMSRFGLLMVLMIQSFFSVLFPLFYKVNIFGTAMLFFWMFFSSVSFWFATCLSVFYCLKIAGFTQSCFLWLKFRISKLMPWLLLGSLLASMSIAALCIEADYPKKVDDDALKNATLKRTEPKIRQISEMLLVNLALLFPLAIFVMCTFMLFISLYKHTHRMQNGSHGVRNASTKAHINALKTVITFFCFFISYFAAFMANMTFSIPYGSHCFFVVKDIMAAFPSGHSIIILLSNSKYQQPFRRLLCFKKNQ
From the text: Residues that can potentially make hydrogen bond or salt bridge interactions with the ligand include Ser94, Trp90, Lys268, Tyr245, and Glu180.
as §1

canine T2R43 = canine T2R43 (Canis lupus, UniProt A0A8I3S925); test: cell-based
Chain of canine T2R43 (A0A8I3S925 1-349): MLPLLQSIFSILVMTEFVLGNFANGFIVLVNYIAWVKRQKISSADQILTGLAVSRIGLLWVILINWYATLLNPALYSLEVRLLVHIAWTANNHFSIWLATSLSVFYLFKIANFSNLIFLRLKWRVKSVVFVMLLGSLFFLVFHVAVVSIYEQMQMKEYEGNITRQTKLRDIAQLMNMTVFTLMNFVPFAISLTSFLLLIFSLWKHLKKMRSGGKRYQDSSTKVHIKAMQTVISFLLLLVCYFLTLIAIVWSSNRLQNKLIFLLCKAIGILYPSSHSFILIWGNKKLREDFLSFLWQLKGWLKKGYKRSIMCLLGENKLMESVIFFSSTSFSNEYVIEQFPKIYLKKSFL
Method: In vitro functional characterization of the selected modulators was used to evaluate the effectiveness of the putative modulator compounds in modulating the activation of the bitter taste receptors.
HEK293 cells that transiently expressed a canine bitter taste receptor selected from canine T2R1, T2R2, T2R3, T2R4, T2R5, T2R10, and T2R43, were exposed to compounds to determine whether the compounds modulated the activity of the bitter taste receptors.
All transient transfections were performed with Lipofectamine2000 (Invitrogen) according to the manufactures protocol. 10 μl Lipofectamine2000 were diluted in 500 μl DMEM (Life Technologies) and incubated for 5 minutes at room temperature. […] At 27 to 30 hours post-transfection the medium was removed from the cells and 20 μl loading buffer that included a calcium sensitive fluorescent dye or luminescent substrate (Tyrode's buffer+2 μM Fluo4-AM (Invitrogen)+2.5 mM probenecid (Invitrogen) for fluorescence or Coelenterazine (Biosynth)+Tyrode's buffer for luminescence) were added for 1 hour (fluorescence) or 3 hours (luminescence) at 37° C. […]
Activation of the bitter taste receptor was determined by detecting a change in intracellular calcium levels as measured by fluorescence or luminescence of the calcium sensitive fluorescent dye or luminescent photoprotein. […] A FLIPR® Tetra system was used to measure fluorescence or luminescence. […]

`c1cnc2c(c1)ccc1cccnc12` [1, 10 Phenanthroline, 1,10-phenanthroline] showed an EC50 (canine T2R5) of 564 ± 114 µM.

For `CCN(CC)CCCC(C)Nc1ccnc2cc(Cl)ccc12` (stereo not drawn) [Chloroquine], the EC50 (canine T2R3) was 81 ± 11 µM.

With `CC(=O)OC(C)(C)/C=C/C(=O)[C@](C)(O)[C@H]1[C@H](O)C[C@@]2(C)[C@@H]3CC=C4[C@@H](C[C@H](O)C(=O)C4(C)C)[C@]3(C)C(=O)C[C@]12C` [Cucurbitacin B] the EC50 (canine T2R10) was 0.3 ± 0.034 µM.

With `CC(C)[C@@H]1CC[C@@H](C)C[C@H]1O` [Menthol] the EC50 (canine T2R1) was 1080 ± 216 µM.

`CC1COc2c(N3CCN(C)CC3)c(F)cc3c(=O)c(C(=O)O)cn1c23` (stereo not drawn) [Ofloxacin] gave an EC50 (canine T2R2) of 232 ± 14 µM.

Work on `CCCc1cc(=O)[nH]c(=S)[nH]1` [Propylthiouracil] yielded an EC50 (canine T2R43) of 126 ± 23 µM.
